Measured values as given in patent US6150524A, “Morphine derivatives with analgesic activity” (priority 1995, dated 2000).
Counter-ions that a name gives are not always drawn. Like-named read-outs stand apart in the source and are kept apart here.

Tested on: mice
Test: Haffner test ("Tail clip test") in mice
Format: in vivo, mouse (male CD mice)
Conditions: Mus musculus, read-out: ED50 (Haffner test in mice)
Description: METHOD: Haffner Test ("Tail clip test") in Mice
The Haffner test is a standard procedure for determining the pain-inhibiting effect of powerful analgesics, mostly of the opioid type, in mice. The method largely corresponds to the one described by Bianchi C. and Franceschini J. (Brit. J. Pharmacol. 9:280, 1954; Experimental observations on Haffner's method for testing analgesic drugs).
Male CD mice (from Charles River, Sulzfeld, FRG) with an average weight of 30±5 grams were used. The animals were kept under standard conditions (temperature: 22±2° C., relative humidity: 55±10%, air exchange: 15-20 times per hour and 12/12 hours light/darkness cycle). The animals had unlimited access to food and water until the test began. During the test the animals were kept singly in Makrolon Type III cages with no bedding. A 3.5 cm arterial clamp was placed about 2 cm from the base of the tail and the pain reaction time was measured in seconds. Any active attempt by the animal to remove the clamp was assessed as a pain reaction. To prevent tissue damage, the test was stopped after at most 30 seconds in every case (cut off latency). In a preliminary test, mice with a pain reaction time of less than 5 seconds (base line latency) were selected for the actual test, which was carried out at specific intervals after the administration of the drug (test latency).
Corresponding quantities of test substances were dissolved in physiological saline solution for intravenous administration or in twice distilled water for oral administration. The total volume administered was 10 ml/kg of body weight in each case. Controls were given the same solvent but with no test substance. 8-10 mice were tested in each group.
The results were plotted as individual values (seconds), mean value±scattering (seconds) per group and as the percent of the maximum possible effect (% MPE=percent of Maximum Possible Effect). [formula] Significant differences between the control and test groups were calculated by means of an unpaired, two-sided Students T-test (*2P<0.05;**2P<0.01; 2P<0.001).
The ED50 value describes the dosage at which 50% of the maximum possible effect (MPE) is achieved. The ED50 value is calculated by linear regression between the dose and the % MPE.

Row | Structure (SMILES) | ED50 (iv, 10 min, i.v., 10 min.) | ED50 (iv, 0.5 h, i.v., 30 min.) | ED50 (iv, 1 h, i.v., 60 min.) | ED50 (iv, 2 h, i.v., 120 min.) | ED50 (po, 0.5 h, p.o., 30 min.) | ED50 (po, 1 h, p.o., 60 min.) | ED50 (po, 2 h, p.o., 120 min.) | ED50 (po, 3 h, p.o., 180 min.) | ED50 (iv, 10 min) | ED50 (iv, 0.5 h) | ED50 (iv, 1 h) | ED50 (iv, 2 h) | ED50 (po, 0.5 h) | ED50 (po, 1 h) | ED50 (po, 2 h) | ED50 (po, 3 h)
2 | COC(=O)CCCCC(=O)O[C@H]1CC[C@H]2[C@H]3Cc4ccc(O)c5c4[C@@]2(CCN3C)[C@H]1O5 [Example 4, 4,5α-Epoxy-6α-((5-methoxycarbonyl-valeryl)-oxy)-17-methyl-morphinan-3-ol acetate] | – | – | – | – | 0.039 µmol/kg | 0.044 µmol/kg | 0.073 µmol/kg | 0.189 µmol/kg | – | – | – | – | – | – | – | –
3 | CN1CC[C@]23c4c5ccc(O)c4O[C@H]2[C@@H](OCCCCOC(=O)c2ccccc2)C=C[C@H]3[C@H]1C5 [Example 4] | 0.0004 µmol/kg | 0.0031 µmol/kg | 0.0119 µmol/kg | 0.0217 µmol/kg | 0.035 µmol/kg | 0.046 µmol/kg | 0.058 µmol/kg | 0.069 µmol/kg | – | – | – | – | – | – | – | –
4 | COC(=O)c1ccc(CO[C@H]2C=C[C@H]3[C@H]4Cc5ccc(O)c6c5[C@@]3(CCN4C)[C@H]2O6)cc1 [Example 5] | 0.0008 µmol/kg | 0.0008 µmol/kg | 0.0032 µmol/kg | 0.0095 µmol/kg | 0.06 µmol/kg | 0.068 µmol/kg | 0.072 µmol/kg | 0.09 µmol/kg | – | – | – | – | – | – | – | –
5 | CN1CC[C@]23c4c5ccc(O)c4O[C@H]2[C@@H](OCCCCOC(=O)C(C)(C)C)C=C[C@H]3[C@H]1C5 [Example 6] | 0.0005 µmol/kg | 0.0026 µmol/kg | 0.0114 µmol/kg | 0.029 µmol/kg | 0.058 µmol/kg | 0.108 µmol/kg | 0.12 µmol/kg | 0.132 µmol/kg | – | – | – | – | – | – | – | –
6 | CN1CC[C@]23c4c5ccc(O)c4O[C@H]2[C@@H](OC(=O)C(C)(O)C(F)(F)F)C=C[C@H]3[C@H]1C5 (some centres unmarked) [Example 11] | 0.0056 µmol/kg | 0.007 µmol/kg | 0.013 µmol/kg | 0.019 µmol/kg | 0.148 µmol/kg | 0.172 µmol/kg | 0.256 µmol/kg | 0.269 µmol/kg | – | – | – | – | – | – | – | –
7 | COc1ccc(CCCC(=O)O[C@H]2C=C[C@H]3[C@H]4Cc5ccc(O)c6c5[C@@]3(CCN4C)[C@H]2O6)cc1 [Example 19] | 0.002 µmol/kg | 0.0025 µmol/kg | 0.0033 µmol/kg | 0.0056 µmol/kg | 0.084 µmol/kg | 0.107 µmol/kg | 0.128 µmol/kg | 0.178 µmol/kg | – | – | – | – | – | – | – | –
8 | COC(=O)CCCCC(=O)O[C@H]1C=C[C@H]2[C@H]3Cc4ccc(O)c5c4[C@@]2(CCN3C)[C@H]1O5 [Example 20] | 0.0037 µmol/kg | 0.0051 µmol/kg | 0.011 µmol/kg | 0.015 µmol/kg | 0.118 µmol/kg | 0.12 µmol/kg | 0.17 µmol/kg | 0.234 µmol/kg | – | – | – | – | – | – | – | –
9 | COC(=O)CCCCCCC(=O)O[C@H]1C=C[C@H]2[C@H]3Cc4ccc(O)c5c4[C@@]2(CCN3C)[C@H]1O5 [Example 22, 4,5α-Epoxy-6α-((6-methoxycarbonyl-hexylcarbonyl)-oxy)-17-methyl-morphinan-7-en-3-ol] | 0.0025 µmol/kg | 0.0033 µmol/kg | 0.005 µmol/kg | 0.022 µmol/kg | 0.109 µmol/kg | 0.208 µmol/kg | 0.298 µmol/kg | 0.315 µmol/kg | – | – | – | – | – | – | – | –
10 | CCOC(=O)CCCCCO[C@H]1C=C[C@H]2[C@H]3Cc4ccc(O)c5c4[C@@]2(CCN3C)[C@H]1O5 [Example 22] | 0.003 µmol/kg | 0.0037 µmol/kg | 0.01 µmol/kg | 0.012 µmol/kg | 0.055 µmol/kg | 0.09 µmol/kg | 0.096 µmol/kg | 0.086 µmol/kg | – | – | – | – | – | – | – | –
11 | CCOC(=O)CCCCO[C@H]1C=C[C@H]2[C@H]3Cc4ccc(O)c5c4[C@@]2(CCN3C)[C@H]1O5 [Example 25] | 0.0011 µmol/kg | 0.0057 µmol/kg | 0.0112 µmol/kg | 0.0129 µmol/kg | 0.0201 µmol/kg | 0.028 µmol/kg | 0.031 µmol/kg | 0.037 µmol/kg | – | – | – | – | – | – | – | –
12 | CN1CC[C@]23c4c5ccc(O)c4O[C@H]2[C@@H](OCCCCC#N)C=C[C@H]3[C@H]1C5 [Example 27] | 0.0059 µmol/kg | 0.0073 µmol/kg | 0.0154 µmol/kg | 0.038 µmol/kg | 0.059 µmol/kg | 0.073 µmol/kg | 0.108 µmol/kg | 0.178 µmol/kg | – | – | – | – | – | – | – | –
13 | CCCC(COC1C=CC2C3Cc4ccc(O)c5c4C2(CCN3C)C1O5)OC(C)=O (centres unmarked) [Example 32] | 0.001 µmol/kg | 0.003 µmol/kg | 0.0099 µmol/kg | 0.024 µmol/kg | 0.068 µmol/kg | 0.12 µmol/kg | 0.154 µmol/kg | 0.232 µmol/kg | – | – | – | – | – | – | – | –
14 | CCCC(O)CO[C@H]1C=C[C@H]2[C@H]3Cc4ccc(O)c5c4[C@@]2(CCN3C)[C@H]1O5 (some centres unmarked) [Example 33] | 0.0019 µmol/kg | 0.0046 µmol/kg | 0.0083 µmol/kg | 0.021 µmol/kg | 0.029 µmol/kg | 0.037 µmol/kg | 0.051 µmol/kg | 0.069 µmol/kg | – | – | – | – | – | – | – | –
15 | CC(=O)OCCCO[C@H]1C=C[C@H]2[C@H]3Cc4ccc(O)c5c4[C@@]2(CCN3C)[C@H]1O5 [Example 38] | 0.0003 µmol/kg | 0.0019 µmol/kg | 0.0036 µmol/kg | 0.079 µmol/kg | 0.023 µmol/kg | 0.027 µmol/kg | 0.035 µmol/kg | 0.043 µmol/kg | – | – | – | – | – | – | – | –
16 | CN1CC[C@]23c4c5ccc(O)c4O[C@H]2[C@@H](OCCCO)C=C[C@H]3[C@H]1C5 [Example 39] | – | – | – | – | 0.027 µmol/kg | 0.035 µmol/kg | 0.149 µmol/kg | 0.283 µmol/kg | – | – | – | – | – | – | – | –
17 | CN1CC[C@]23c4c5ccc(O)c4O[C@H]2[C@@H](O)C=C[C@H]3[C@H]1C5 [Morphine.HCl, reference compound] | – | – | – | – | – | – | – | – | 0.017 µmol/kg | 0.019 µmol/kg | 0.021 µmol/kg | 0.037 µmol/kg | 0.279 µmol/kg | 0.296 µmol/kg | 0.539 µmol/kg | 0.718 µmol/kg
